Experimental data as given in US12336981B2, “Compounds and compositions for the inhibition of NAMPT” (Valo Health, Inc., priority 2010, dated 2025).
Where two headings read alike, the source gives them in different places.

How the values were obtained:
NAMPT = biological target: T1, NAMPT (Homo sapiens, UniProt P43490); experiment: Biochemical inhibition assay: NAMPT enzymatic reaction, NMN quantified by mass spectrometry; details: read-out: Biochem IC50
T1 construct: His tag; host or cells: E. coli
T1 sequence (P43490 whole entry): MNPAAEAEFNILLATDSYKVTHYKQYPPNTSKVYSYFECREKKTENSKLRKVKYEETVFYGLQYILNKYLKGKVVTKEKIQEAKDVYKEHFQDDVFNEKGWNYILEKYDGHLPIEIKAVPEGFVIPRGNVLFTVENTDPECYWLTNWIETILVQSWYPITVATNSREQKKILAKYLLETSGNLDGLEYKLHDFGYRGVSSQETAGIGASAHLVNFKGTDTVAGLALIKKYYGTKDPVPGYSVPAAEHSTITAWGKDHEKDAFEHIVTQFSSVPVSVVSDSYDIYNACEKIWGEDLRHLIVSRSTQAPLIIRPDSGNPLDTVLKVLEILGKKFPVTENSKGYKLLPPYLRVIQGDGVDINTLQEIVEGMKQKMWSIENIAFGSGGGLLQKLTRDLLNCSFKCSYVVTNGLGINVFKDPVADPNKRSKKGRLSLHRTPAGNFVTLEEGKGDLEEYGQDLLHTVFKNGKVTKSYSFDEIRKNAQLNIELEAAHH
In short: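 Inhibition of E. coli-expressed His-tagged human NAMPT, measured as NMN formation by mass spectrometry after a 30 min room-temperature reaction containing 1 μM NAM, 100 μM PRPP and 2.5 mM ATP.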

A2780 cells = experiment: In-vitro cell proliferation assay (SRB), A2780 cells; format: cell-based; details: A2780 cells, 72 hours, SRB, read-out: A2780 IC50
In short: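 Read-out is SRB absorbance at 570 nm on TCA-fixed cells after 72 hours of compound treatment at 37° C. in 5% CO2. Background from a media-only plate is subtracted, and % inhibition is interpolated between two tested concentrations.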

SMILES | IC50 (NAMPT; NAMPT enzymatic reaction) | IC50 (A2780 cells; Homo sapiens, A2780, 72 h) | IC50 (NAMPT; NAMPT enzymatic assay) | IC50 (A2780 cells)
O=C(NCc1ccc(S(=O)(=O)c2cccc(N3CCOCC3)c2)cc1)c1cc2cc(O)ccc2[nH]1 | 100 to 1000 nM | 1000 to 10000 nM |  | 
COc1ccc(OC)c(S(=O)(=O)c2ccc(CNC(=O)c3cc4ccncc4o3)cc2)c1 | 11.4 nM | 6.3 nM |  | 
Cc1ccc(C)c(S(=O)(=O)c2ccc(CNC(=O)c3cc4ccncc4o3)cc2)c1 | 18.1 nM | 23.9 nM |  | 
CN(C)CCOc1cccc(S(=O)(=O)c2ccc(CNC(=O)c3cc4ccncc4o3)cc2)c1 |  | 5.8 nM | 11.8 nM | 
CN(C)CCc1cccc(S(=O)(=O)c2ccc(CNC(=O)c3cc4ccncc4s3)cc2)c1 |  | 1.6 nM | 2.5 nM | 
CN(C)CCc1cccc(S(=O)(=O)c2ccc(CNC(=O)c3cnc4nccn4c3)cc2)c1 |  | 100 to 1000 nM | 3.5 nM | 
CN(C)CCc1cccc(S(=O)(=O)c2ccc(CNC(=O)c3cc4cnccc4[nH]3)cc2)c1 |  | 22.3 nM | 29.2 nM | 
O=C(NCc1ccc(S(=O)(=O)c2cccc(OCCN3CCOCC3)c2)cc1)c1cc2ccncc2s1 |  | 1.5 nM | 3 nM | 
O=C(NCc1ccc(S(=O)(=O)c2cccc(OCCN3CCOCC3)c2)cc1)c1cc2cnccc2[nH]1 |  | 12.6 nM | 64.9 nM | 
O=C(NCc1ccc(S(=O)(=O)c2cccc(OCCN3CCOCC3)c2)cc1)c1ccc2nccn2c1 |  | 3.4 nM | 6.8 nM | 
O=C(NCc1ccc(S(=O)(=O)c2cccc(OCCN3CCOCC3)c2)cc1)c1cnc2nccn2c1 |  | 24.7 nM | 3.1 nM | 
CC(C)CNC(=O)c1cccc(S(=O)(=O)c2ccc(CNC(=O)c3cnc4nccn4c3)cc2)c1 |  | 45.6 nM | 7 nM | 
CN(C)Cc1cccc(S(=O)(=O)c2ccc(CNC(=O)c3cnc4nccn4c3)cc2)c1 |  | 66 nM | 4.4 nM | 
CN(C)Cc1cccc(S(=O)(=O)c2ccc(CNC(=O)c3cc4ccncc4o3)cc2)c1 |  | 6.2 nM | 4.7 nM | 
O=C(NCc1ccc(S(=O)(=O)c2cccc(C(=O)N3CCOCC3)c2)cc1)c1cnc2[nH]ncc2c1 |  | 100 to 1000 nM | 124 nM | 
CC(C)NC(=O)c1cccc(S(=O)(=O)c2ccc(CNC(=O)c3cc4ccncc4o3)cc2)c1 |  | 15.7 nM | 15.1 nM | 
CC(C)NC(=O)c1cccc(S(=O)(=O)c2ccc(CNC(=O)c3cnc4nccn4c3)cc2)c1 |  | 65.8 nM | 7 nM | 
CC(C)NC(=O)c1cccc(S(=O)(=O)c2ccc(CNC(=O)c3ccc4nccn4c3)cc2)c1 |  | 50.4 nM | 22.2 nM | 
CN(C)CCc1ccc(S(=O)(=O)c2ccc(CNC(=O)c3ccc4nccn4c3)cc2)cc1 |  | 0.8 nM | 2.1 nM | 
CN(C)CCc1ccc(S(=O)(=O)c2ccc(CNC(=O)c3cnc4nccn4c3)cc2)cc1 |  | 18.1 nM | 2 nM | 
O=C(NCc1ccc(S(=O)(=O)c2ccc(OCCN3CCCC3)cc2)cc1)c1cc2cnccc2[nH]1 |  |  | 3 nM | 2.3 nM

SMILES | IC50 (NAMPT; NAMPT enzymatic reaction) | IC50 (A2780 cells; Homo sapiens, A2780, 72 h) | IC50 (NAMPT; NAMPT enzymatic assay) | IC50 (A2780 cells)
CCC[C@@H](O)c1ccc(S(=O)(=O)c2ccc(CNC(=O)c3cnc4nccn4c3)cc2)cc1 |  | 14.2 nM | 4.8 nM | 
CCC[C@@H](O)c1ccc(S(=O)(=O)c2ccc(CNC(=O)c3cc4ccncc4o3)cc2)cc1 |  | 12.2 nM | 28.5 nM | 
CN(C)Cc1ccc(S(=O)(=O)c2ccc(CNC(=O)c3cnc4nccn4c3)cc2)cc1 |  | 24.6 nM | 3.3 nM | 
COc1cc(F)ccc1S(=O)(=O)c1ccc(CNC(=O)c2cc3ccncc3o2)cc1 | 12.7 nM | 16 nM |  | 
COc1cc(F)ccc1S(=O)(=O)c1ccc(CNC(=O)c2cnc3nccn3c2)cc1 | 19.1 nM | 73.6 nM |  | 
Cc1cc(F)ccc1S(=O)(=O)c1ccc(CNC(=O)c2cnc3nccn3c2)cc1 | 13 nM | 100 to 1000 nM |  | 
Cc1cc(F)ccc1S(=O)(=O)c1ccc(CNC(=O)c2cc3ccncc3o2)cc1 | 18.7 nM | 65.1 nM |  | 
Cc1cc(S(=O)(=O)c2ccc(CNC(=O)c3cnc4nccn4c3)cc2)c(C)cc1F | 5.8 nM | 29.4 nM |  | 
Cc1cc(S(=O)(=O)c2ccc(CNC(=O)c3ccc4nccn4c3)cc2)c(C)cc1F | 44 nM | 11 nM |  | 
CC(C)NC(=O)c1cc(S(=O)(=O)c2ccc(CNC(=O)c3cnc4nccn4c3)cc2)ccc1F |  | 85.4 nM | 7.7 nM | 
CC(C)NC(=O)c1cc(S(=O)(=O)c2ccc(CNC(=O)c3cc4ccncc4s3)cc2)ccc1F |  | 6.8 nM | 21.3 nM | 
COc1cc(S(=O)(=O)c2ccc(CNC(=O)c3cc4cnccc4[nH]3)cc2)ccc1F | 27.8 nM | 5.4 nM |  | 
COc1cc(S(=O)(=O)c2ccc(CNC(=O)c3cnc4nccn4c3)cc2)ccc1F | 4.9 nM | 10.8 nM |  | 
COc1cc(S(=O)(=O)c2ccc(CNC(=O)c3cc4ccncc4o3)cc2)ccc1F | 7.8 nM | 7 nM |  | 
COc1cc(S(=O)(=O)c2ccc(CNC(=O)c3ccc4nccn4c3)cc2)ccc1F | 19.7 nM | 6.7 nM |  | 
Cc1cc(S(=O)(=O)c2ccc(CNC(=O)c3cnc4nccn4c3)cc2)ccc1F | 2.2 nM | 9.6 nM |  | 
Cc1cc(S(=O)(=O)c2ccc(CNC(=O)c3cnc4[nH]ncc4c3)cc2)ccc1F | 5 nM | 8.3 nM |  | 
Cc1cc(S(=O)(=O)c2ccc(CNC(=O)c3cc4ccncc4o3)cc2)ccc1F | 13.2 nM | 6 nM |  | 
COc1ccc(S(=O)(=O)c2ccc(CNC(=O)c3cnc4nccn4c3)cc2)c(C)c1 | 2.4 nM | 67.9 nM |  | 
COc1cc(C)c(S(=O)(=O)c2ccc(CNC(=O)c3cnc4nccn4c3)cc2)cc1C | 5.2 nM | 13 nM |  | 
COc1cc(C)c(S(=O)(=O)c2ccc(CNC(=O)c3ccc4nccn4c3)cc2)cc1C | 28.1 nM | 6 nM |  | 

SMILES | IC50 (NAMPT; NAMPT enzymatic reaction) | IC50 (A2780 cells; Homo sapiens, A2780, 72 h) | IC50 (NAMPT; NAMPT enzymatic assay) | IC50 (A2780 cells)
COc1cc(C)c(S(=O)(=O)c2ccc(CNC(=O)c3cc4ccncc4o3)cc2)cc1C | 12.3 nM | 12.8 nM |  | 
COc1ccc(S(=O)(=O)c2ccc(CNC(=O)c3cnc4nccn4c3)cc2)cc1C | 2.2 nM | 5.5 nM |  | 
COc1c(C)cc(S(=O)(=O)c2ccc(CNC(=O)c3cc4ccncc4s3)cc2)cc1C | 9.8 nM | 0.9 nM |  | 
COc1c(C)cc(S(=O)(=O)c2ccc(CNC(=O)c3ccc4nccn4c3)cc2)cc1C | 14.6 nM | 1.4 nM |  | 
COc1c(C)cc(S(=O)(=O)c2ccc(CNC(=O)c3cc4ccncc4o3)cc2)cc1C | 5.6 nM | 1.8 nM |  | 
COc1c(C)cc(S(=O)(=O)c2ccc(CNC(=O)c3cnc4nccn4c3)cc2)cc1C | 2.7 nM | 1.3 nM |  | 
COc1c(C)cc(S(=O)(=O)c2ccc(CNC(=O)c3cc4cnccc4[nH]3)cc2)cc1C | 51.6 nM | 1.7 nM |  | 
COc1ccc(S(=O)(=O)c2ccc(CNC(=O)c3cnc4[nH]ncc4c3)cc2)cc1 | 20.9 nM | 14.3 nM |  | 
COc1ccc(S(=O)(=O)c2ccc(CNC(=O)c3cnc4nccn4c3)cc2)cc1 | 2.7 nM | 20.7 nM |  | 
Cc1ccc(S(=O)(=O)c2ccc(CNC(=O)c3cnc4nccn4c3)cc2)cc1 | 4.3 nM | 19.4 nM |  | 
O=C(NCc1ccc(S(=O)(=O)c2ccc(-c3ccccc3)cc2)cc1)c1cnc2[nH]ncc2c1 | 32 nM | 11.7 nM |  | 
O=C(NCc1ccc(S(=O)(=O)c2ccc(-c3ccccc3)cc2)cc1)c1cc2ccncc2s1 | 3 nM | 10.6 nM |  | 
CCCOc1ccc(S(=O)(=O)c2ccc(CNC(=O)c3cc4cnccc4[nH]3)cc2)cc1 | 5.3 nM | 6.7 nM |  | 
CCCOc1ccc(S(=O)(=O)c2ccc(CNC(=O)c3cc4ccncc4o3)cc2)cc1 | 49.5 nM | 12 nM |  | 
CCCOc1ccc(S(=O)(=O)c2ccc(CNC(=O)c3cnc4nccn4c3)cc2)cc1 | 2.2 nM | 6.1 nM |  | 
CCCOc1ccc(S(=O)(=O)c2ccc(CNC(=O)c3ccc4nccn4c3)cc2)cc1 | 6.1 nM | 1.9 nM |  | 
CCCOc1ccc(S(=O)(=O)c2ccc(CNC(=O)c3cc4ccncc4s3)cc2)cc1 | 4.3 nM | 8.1 nM |  | 
COc1ccc(C(C)=O)cc1S(=O)(=O)c1ccc(CNC(=O)c2cnc3[nH]ncc3c2)cc1 | 27.7 nM | 27.5 nM |  | 
COc1ccc(C(C)=O)cc1S(=O)(=O)c1ccc(CNC(=O)c2cc3ccncc3o2)cc1 | 7.2 nM | 3.8 nM |  | 
